Test results from US11759455B2, “Substituted 1H-imidazo[4,5-b]pyridin-2(3H)-ones and their use as GLUN2B receptor modulators” (JANSSEN PHARMACEUTICA NV, priority 2016, dated 2023).
Where two headings read alike, the source gives them in different places.

Target: T1, human GluN1/GluN2B NMDA receptors (Homo sapiens, UniProt Q05586+Q13224)
T1 construct: expressed in transfected cells
Test: Cell-based calcium flux (FLIPR) assay on cloned human NR1/NR2B ion channels expressed in mammalian cells (standard and HTS buffer variants);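 further: stable Tet-On inducible cell line, Ca2+ influx triggered by glutamate at about EC40 plus 10 µM glycine, fluorescent dye read-out over 5 min, normalized to control wells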
Conditions: read-out: NR2B IC50 (μM) standard assay

[1] = standard assay buffer (0.5 mM MgCl2 dye loading; 137 mM NaCl, 4 mM KCl assay buffer), human GluN1/GluN2B cells

T1 sequence (Q13224 27-1484, other chains not shown): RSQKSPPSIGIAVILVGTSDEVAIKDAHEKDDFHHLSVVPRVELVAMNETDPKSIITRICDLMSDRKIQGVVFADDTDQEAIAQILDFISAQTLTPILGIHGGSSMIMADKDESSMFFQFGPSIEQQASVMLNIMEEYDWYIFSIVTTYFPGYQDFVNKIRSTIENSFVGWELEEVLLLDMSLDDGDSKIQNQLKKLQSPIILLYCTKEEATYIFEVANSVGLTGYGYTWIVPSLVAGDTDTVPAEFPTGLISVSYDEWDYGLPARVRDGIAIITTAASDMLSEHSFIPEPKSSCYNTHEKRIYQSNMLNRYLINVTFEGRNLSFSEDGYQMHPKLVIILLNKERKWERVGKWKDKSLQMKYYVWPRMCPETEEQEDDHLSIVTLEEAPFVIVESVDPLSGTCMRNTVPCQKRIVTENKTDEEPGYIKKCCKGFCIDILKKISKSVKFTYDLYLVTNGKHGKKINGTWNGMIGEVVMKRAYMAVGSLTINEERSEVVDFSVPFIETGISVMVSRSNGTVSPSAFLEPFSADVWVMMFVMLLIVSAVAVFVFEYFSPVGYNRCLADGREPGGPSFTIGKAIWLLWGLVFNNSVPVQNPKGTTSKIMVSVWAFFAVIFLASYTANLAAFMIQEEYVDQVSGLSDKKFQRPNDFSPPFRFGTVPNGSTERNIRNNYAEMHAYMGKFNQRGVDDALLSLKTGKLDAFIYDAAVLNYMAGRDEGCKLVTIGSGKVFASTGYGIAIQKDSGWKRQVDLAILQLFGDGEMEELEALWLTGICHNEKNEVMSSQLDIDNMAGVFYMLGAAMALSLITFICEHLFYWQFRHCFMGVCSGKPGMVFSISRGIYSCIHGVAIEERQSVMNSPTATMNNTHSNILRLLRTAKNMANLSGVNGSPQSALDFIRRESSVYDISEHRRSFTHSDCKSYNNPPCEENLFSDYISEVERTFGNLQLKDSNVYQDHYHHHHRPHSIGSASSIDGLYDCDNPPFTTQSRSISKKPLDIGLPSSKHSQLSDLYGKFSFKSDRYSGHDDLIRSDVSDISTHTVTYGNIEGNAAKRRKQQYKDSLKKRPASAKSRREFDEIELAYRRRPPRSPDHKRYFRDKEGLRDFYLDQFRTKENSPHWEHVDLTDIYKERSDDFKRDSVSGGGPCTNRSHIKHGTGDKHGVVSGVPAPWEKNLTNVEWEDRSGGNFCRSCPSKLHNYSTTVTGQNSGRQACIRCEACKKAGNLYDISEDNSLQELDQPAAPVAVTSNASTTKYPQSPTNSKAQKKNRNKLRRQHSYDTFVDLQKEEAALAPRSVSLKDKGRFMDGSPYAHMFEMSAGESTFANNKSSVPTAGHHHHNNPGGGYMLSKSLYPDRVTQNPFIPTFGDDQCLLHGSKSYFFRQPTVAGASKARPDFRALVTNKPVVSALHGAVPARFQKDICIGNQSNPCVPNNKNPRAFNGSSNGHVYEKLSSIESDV

| IC50 [1] [µM] | IC50 (standard assay buffer (0.5 mM MgCl2 in dye loading buffer; 137 mM NaCl, 4 mM KCl in assay buffer), human GluN1/GluN2B) [µM] | SMILES |
| --- | --- | --- |
| 0.018 |  | Cn1c(=O)n(CC(=O)N2CC(F)C2)c2cc(-c3csc(C(F)(F)F)c3)cnc21 [Example 102, 1-[2-(3-Fluoroazetidin-1-yl)-2-oxo-ethyl]-3-methyl-6-[5-(trifluoromethyl)-3-thienyl]imidazo[4,5-b]pyridin-2-one] |
| 0.046 |  | O=c1[nH]c2ncc(-c3ccc(F)c(C(F)(F)F)c3)cc2n1CC1CCO1 (racemic) [Example 271, (R/S)-6-[4-Fluoro-3-(trifluoromethyl)phenyl]-1-(oxetan-2-ylmethyl)-3H-imidazo[4,5-b]pyridin-2-one] |
|  | 1.9 | CCC(O)Cn1c(=O)n(C)c2ncc(-c3ccc(F)c(F)c3)cc21 (racemic) [Example 333, (R/S)-6-(3,4-Difluorophenyl)-1-(2-hydroxybutyl)-3-methyl-imidazo[4,5-b]pyridin-2-one] |
